Assay results published in BindingDB's records for PubMed 2905002 (Schering-Plough, 1988).

Target: 5-hydroxytryptamine receptor 2A (Rattus norvegicus, UniProt P14842)
Sequence (P14842 whole entry): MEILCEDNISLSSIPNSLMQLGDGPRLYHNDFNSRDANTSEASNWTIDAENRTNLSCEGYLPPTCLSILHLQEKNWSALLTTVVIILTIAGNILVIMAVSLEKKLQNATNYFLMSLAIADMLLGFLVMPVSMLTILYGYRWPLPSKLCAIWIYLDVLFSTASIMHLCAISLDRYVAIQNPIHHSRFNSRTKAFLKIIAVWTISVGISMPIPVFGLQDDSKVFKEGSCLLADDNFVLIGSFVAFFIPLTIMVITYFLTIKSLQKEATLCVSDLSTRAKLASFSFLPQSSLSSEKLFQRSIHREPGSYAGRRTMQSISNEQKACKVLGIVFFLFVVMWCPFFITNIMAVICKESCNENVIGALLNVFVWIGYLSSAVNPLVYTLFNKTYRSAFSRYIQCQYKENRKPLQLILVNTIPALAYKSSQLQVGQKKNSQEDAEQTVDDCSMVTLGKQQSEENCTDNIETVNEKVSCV

Structure (SMILES)	Ki [nM]
CN1CCc2cc(Cl)c(O)cc2[C@H]2c3ccccc3CC[C@@H]21	321
CN1CCc2cc(Cl)c(O)cc2[C@@H](c2ccccc2)C1 [SCH 23390,R(+)]	13.1
